Values of other authors, collected in US7449194B2, “Antimicrobial body covering articles” (priority 2002, dated 2008).

Settings: in water; 21° C.

[O][Cl+][O-] [chlorine dioxide]
partition coefficient: 40
